Test results: patent US20230074252A1, “DOSAGES AND METHODS FOR TREATING PULMONARY ARTERIAL HYPERTENSION WITH RODATRISTAT” (Altavant Sciences GmbH, priority 2020, published 2023)
Read-outs that look alike come from different tables or passages of the source.

How the values were obtained:
Type in all cases: in vitro ADME
CYP2C8 = target: T1, CYP2C8 (Homo sapiens, UniProt P10632); experiment: In vitro CYP substrate assessment (victim potential)
T1 sequence (P10632 1-490): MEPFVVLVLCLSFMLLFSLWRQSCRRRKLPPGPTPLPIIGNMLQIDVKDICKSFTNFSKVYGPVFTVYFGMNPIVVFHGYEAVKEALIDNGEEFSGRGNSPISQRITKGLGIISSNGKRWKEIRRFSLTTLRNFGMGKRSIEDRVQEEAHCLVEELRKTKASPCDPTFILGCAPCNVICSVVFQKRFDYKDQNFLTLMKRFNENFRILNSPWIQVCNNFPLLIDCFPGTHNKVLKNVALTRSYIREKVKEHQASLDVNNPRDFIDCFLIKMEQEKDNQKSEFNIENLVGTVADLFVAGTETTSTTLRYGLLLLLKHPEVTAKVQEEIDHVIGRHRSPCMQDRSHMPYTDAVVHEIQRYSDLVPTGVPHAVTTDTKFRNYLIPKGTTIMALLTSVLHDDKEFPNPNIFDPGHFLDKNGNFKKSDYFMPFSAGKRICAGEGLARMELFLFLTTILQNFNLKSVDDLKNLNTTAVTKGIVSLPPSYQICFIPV

BCRP = target: T2, BCRP (Homo sapiens, UniProt Q9UNQ0); experiment: Transporter inhibition, transporter-expressing in vitro system; conditions: for Potential for interaction? (transporter inhibitor), BCRP: predicted @ 600 mg BID
T2 sequence (Q9UNQ0 1-655): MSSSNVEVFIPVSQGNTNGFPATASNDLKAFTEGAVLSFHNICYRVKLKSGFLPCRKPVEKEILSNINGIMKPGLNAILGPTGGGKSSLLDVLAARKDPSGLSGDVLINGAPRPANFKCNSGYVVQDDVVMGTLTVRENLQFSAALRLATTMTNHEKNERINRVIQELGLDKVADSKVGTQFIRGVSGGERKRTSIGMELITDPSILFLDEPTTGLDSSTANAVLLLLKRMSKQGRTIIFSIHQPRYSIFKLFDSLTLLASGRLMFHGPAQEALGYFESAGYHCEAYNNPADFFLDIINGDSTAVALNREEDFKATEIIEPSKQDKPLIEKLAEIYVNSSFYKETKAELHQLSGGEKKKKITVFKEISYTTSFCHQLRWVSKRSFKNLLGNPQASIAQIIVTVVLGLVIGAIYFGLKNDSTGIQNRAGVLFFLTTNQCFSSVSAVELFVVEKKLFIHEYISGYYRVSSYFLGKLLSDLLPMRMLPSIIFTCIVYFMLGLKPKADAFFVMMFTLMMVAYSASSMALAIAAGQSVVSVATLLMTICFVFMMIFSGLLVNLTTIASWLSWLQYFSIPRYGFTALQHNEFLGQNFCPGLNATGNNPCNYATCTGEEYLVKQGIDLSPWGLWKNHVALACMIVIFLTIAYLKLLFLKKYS
Method: (§1) The competitive inhibition of specific transporters was investigated for RVT-1201 and KAR5417 in transporter-expressing in vitro systems (XT158039). Inhibition of P-gp was evaluated using a Caco-2 cell line with digoxin as probe substrate. Inhibition of OATP1B1 and OATP1B3 was evaluated using a HEK293 cell line expressing these transporters with estradiol-17β-glucuronide as probe substrate. In addition, inhibition of other transporters was also investigated (BCRP, OAT1, OAT3, OCT2, MATE1, MATE2-K). The IC50 estimates for P-gp (RVT-1201) and OATP1B1/3 (RVT-1201 and KAR5417) supported further evaluation of inhibition DDI potential using the PBPK model. For each IC50 estimate, substrate concentration and Km were used to estimate RVT-1201 and KAR5417 Ki with Equation 1 (Cheng and Prusoff, 1973).

OAT3 = target: T3, OAT3 (Homo sapiens, UniProt Q8TCC7); experiment: as above; conditions: for Potential for interaction? (transporter inhibitor), OAT3: predicted @ 600 mg BID
T3 sequence (Q8TCC7 1-542): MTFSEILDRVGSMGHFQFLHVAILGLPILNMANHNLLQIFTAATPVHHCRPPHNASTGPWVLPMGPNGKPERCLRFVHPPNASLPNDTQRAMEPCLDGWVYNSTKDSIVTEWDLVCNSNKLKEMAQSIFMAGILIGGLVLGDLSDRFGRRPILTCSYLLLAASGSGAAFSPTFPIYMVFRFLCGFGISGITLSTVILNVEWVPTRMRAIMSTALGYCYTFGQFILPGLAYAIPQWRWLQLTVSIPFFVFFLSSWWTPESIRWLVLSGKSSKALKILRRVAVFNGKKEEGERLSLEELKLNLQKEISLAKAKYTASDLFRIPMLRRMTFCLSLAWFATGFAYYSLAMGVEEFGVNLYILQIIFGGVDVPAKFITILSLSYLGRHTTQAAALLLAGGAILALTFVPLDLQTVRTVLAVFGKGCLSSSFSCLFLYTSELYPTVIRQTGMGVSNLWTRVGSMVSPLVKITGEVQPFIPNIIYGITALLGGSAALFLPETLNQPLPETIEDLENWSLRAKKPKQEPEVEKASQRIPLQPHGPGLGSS
Method: as §1

OCT2 = target: T4, OCT2 (Homo sapiens, UniProt O15244); experiment: as above; conditions: for IC50: concentrations of up to 20 μM; for Potential for interaction? (transporter inhibitor), OCT2: predicted @ 600 mg BID
T4 sequence (O15244 1-555): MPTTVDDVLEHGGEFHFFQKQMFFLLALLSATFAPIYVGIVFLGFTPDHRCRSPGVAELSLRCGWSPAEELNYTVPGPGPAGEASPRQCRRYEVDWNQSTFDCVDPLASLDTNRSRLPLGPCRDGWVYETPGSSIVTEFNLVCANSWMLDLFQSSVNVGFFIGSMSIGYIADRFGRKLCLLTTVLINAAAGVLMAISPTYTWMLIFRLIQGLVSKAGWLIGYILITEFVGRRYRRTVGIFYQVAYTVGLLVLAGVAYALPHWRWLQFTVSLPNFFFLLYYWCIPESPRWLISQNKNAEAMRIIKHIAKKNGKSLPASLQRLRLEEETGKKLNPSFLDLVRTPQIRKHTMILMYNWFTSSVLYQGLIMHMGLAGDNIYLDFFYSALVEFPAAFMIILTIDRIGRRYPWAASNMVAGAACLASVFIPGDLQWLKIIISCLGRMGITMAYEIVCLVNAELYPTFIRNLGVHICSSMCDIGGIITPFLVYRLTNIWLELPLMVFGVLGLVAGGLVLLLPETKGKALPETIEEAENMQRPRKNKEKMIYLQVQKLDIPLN
Method: as §1

Row | Structure (SMILES) | In vitro substrate? CYP2C8 (CYP2C8) | Inhibition of BCRP (in words) (BCRP) | Inhibition of BCRP (in words) (BCRP; listed as rodatristat ethyl) | Potential for interaction? (transporter inhibitor), BCRP (BCRP) | Inhibition of OAT3 (in words) (OAT3) | Potential for interaction? (transporter inhibitor), OAT3 (OAT3) | IC50 (OCT2) [µM] | Potential for interaction? (transporter inhibitor), OCT2 (OCT2) | Inhibition of BCRP (in words) (BCRP; listed as rodatristat)
1 | CCOC(=O)[C@@H]1CC2(CCN(c3cc(O[C@H](c4ccc(Cl)cc4-c4ccccc4)C(F)(F)F)nc(N)n3)CC2)CN1 [Rodatristat ethyl, (S)-ethyl 8-(2-amino-6-((R)-1-(5-chloro-[1,1′-biphenyl]-2-yl)-2,2,2-trifluoroethoxy)pyrimidin-4-yl)-2,8-diazaspiro[4.5]decane-3-carboxylate] | No | not an inhibitor | Neither rodatristat ethyl nor rodatristat inhibited | No | Neither rodatristat ethyl nor rodatristat inhibited | No | > 20 | No | 
2 | Nc1nc(O[C@H](c2ccc(Cl)cc2-c2ccccc2)C(F)(F)F)cc(N2CCC3(CC2)CN[C@H](C(=O)O)C3)n1 [Rodatristat, (S)-8-(2-amino-6-((R)-1-(5-chloro-[1,1′-biphenyl]-2-yl)-2,2,2-trifluoroeth-oxy)pyrimidin-4-yl)-2,8-diazaspiro[4.5]decane-3-carboxylic acid] | No | not an inhibitor |  | No | Neither rodatristat ethyl nor rodatristat inhibited | No | > 20 | No | Neither rodatristat ethyl nor rodatristat inhibited
